Laboratory results from patent US10273442B1, “Device and method for concomitant ejection and suction of perfusate” (priority 2015, dated 2019).
“Also recorded” adds a separate entry of the source.

Columns and labels:
Format in all cases: cell-based, rat
[1] = tested on: LII stellate cells in MEA; test: Spontaneous postsynaptic currents (sEPSCs, sIPSCs) in LII stellate cells of MEA after focal application of compounds to PrS via CESOP, voltage-clamp in acute brain slices; conditions: for percentage reduction in sIPSC frequency following application of the drug: NBQX 10 μM focally to PrS; for average sIPSC frequency / average sEPSC amplitude / average sEPSC frequency: glutamate 100 μM then NBQX 10 μM focally to PrS, mean ±SEM; for average sIPSC frequency: holding 0 mV; for average sEPSC amplitude / average sEPSC frequency: holding -70 mV
Method: (§1) Sprague-Dawley rats (male; n=11 epileptic, n=15 controls) from postnatal (P) days 40 to 88 were used in this study. All experiments were carried out in accordance with the National Institute of Health Guide for the Care and Use of Laboratory Animals and were approved by the Florida State University Institutional Animal Care and Use Committee. Rats were made epileptic according to previously described protocols for bringing up the pilocarpine model of TLE. Briefly, rats were treated with pilocarpine (P41, 141±2 g; 380 mg/kg i.p.) 20 min after atropine methylbromide (5 mg/kg i.p.). Diazepam (10 mg/kg i.p.) was administered 2 h after the onset of status epilepticus and repeated as needed. Following recovery from status epilepticus, rats were video monitored (40 h/wk) for spontaneous seizures. Animals used for electrophysiological experiments were confirmed epileptic, displaying frank spontaneous recurrent seizures scored 3 or greater on the Racine scale (Racine 1972) on two or more observations during the 40 h/wk video monitoring. Recordings from epileptic animals were made on average 39 days (P80) post status epilepticus (range: 25-47 days, P66-P88), with initial seizures observed between 5 and 29 days post status. Control groups consisted of naive rats that were on average P70 (range: P49-P91).
(§2) Rats were deeply anesthetized with urethane (1.5 g/kg ip) before being decapitated. Following decapitation, the brain was quickly removed from the skull before being placed in a chilled (4° C.) low-Ca^2+, low-Na^+“cutting solution” containing (in mM) 230 sucrose, 10 D-glucose, 26 NaHCO3, 2.5 KCl, 1.25 NaH2PO4, 10 MgSO4, and 0.5 CaCl2 equilibrated with a 95%-5% mixture of O2 and CO2. After removing the cerebellum and rostral half of the brain, a 10-15° semi-horizontal cut (in a ventral-caudal to dorsal-rostral plane) was made to the dorsal part of the cortex with respect to the horizontal plane (FIG. 2E). The cut dorsal surface of the brain was adhered to the cutting platform using cyanoacrylate glue. This cutting angle was chosen to increase the likelihood of preserving PrS projections to MEA in acute brain slices, because PrS projections tend to travel to the MEA in a lateroventral orientation. Semi-horizontal slices (400 μm) were prepared using a microslicer (VT1000S, Leica, Germany) in the chilled cutting solution and allowed to equilibrate in oxygenated artificial cerebrospinal fluid (aCSF) containing (in mM) 126 NaCl, 26 NaHCO3, 3 KCl, 1.25 NaH2PO4, 2 MgSO4, 2 CaCl2, 0.25 L-Glutamine, and 10 D-glucose (pH 7.4), first at 32° C. for 1 h and subsequently at room temperature before being transferred to the recording chamber.
(§3) Recordings were obtained at 32±1° C. from neurons in LII and LIII of MEA under Nomarski optics (Zeiss) using a visualized infrared setup (Hamamatsu) that enabled identification of their location within the various lamina. On average, 3.5±0.4 (range: 2-5) and 3.6±0.4 (range: 2-6) cells were recorded per animals in the control and epileptic groups respectively. Patch electrodes were pulled from borosilicate glass (1.5 mm outer diameter, 0.75 mm inner diameter, 3-6 MΩ). The internal solution for voltage-clamp experiments contained (in mM): 120 cesium gluconate, 1 MgCl2, 1 CaCl2, 11 CsCl, 10 HEPES, 2 NaATP, 0.3 NaGTP, 1 QX-314, 11 EGTA, and 20 biocytin (pH 7.3, corrected with Cs-OH; final osmotic concentration, 290 mOsm). The internal solution for current-clamp experiments contained (in mM): 105 potassium gluconate, 30 KCl, 10 HEPES, 10 phosphocreatine, 4 MgATP, 0.3 GTP (pH adjusted to 7.3 with KOH; final osmotic concentration, 300 mOsm).
(§4) Recording conditions were the same for control and epileptic animals. Slices were maintained in oxygenated (95% O2-5% CO2) aCSF, flowing at a rate of 2 ml/min. Drugs were applied focally to superficial PrS via the CESOP technique (FIGS. 4A-4E, described below). […]

[2] = tested on: LIII pyramidal neurons in MEA; test: Spontaneous postsynaptic currents (sEPSCs, sIPSCs) in LIII pyramidal neurons of MEA after focal application of compounds to PrS via CESOP, voltage-clamp in acute brain slices
Method: as §1, §2, §3, §4

RS cell in LIII of PrS = test: Action potential firing of PrS neurons on local application via CESOP, current-clamp in acute brain slices; conditions: glutamate 100 μM, 3 min duration
[3] = epileptic rats (pilocarpine model of TLE)
[4] = epileptic conditions, glutamate 100 μM then NBQX 10 μM focally to PrS, holding 0 mV, mean ±SEM

## NS(=O)(=O)c1cccc2c1c([N+](=O)[O-])cc1[nH]c(=O)c(=O)[nH]c12 [NBQX, 2,3-dioxo-6-nitro-1,2,3,4-tetrahydrobenzo[f]quinoxaline-7-sulfonamide]
[1]; control animals
  percentage reduction in sIPSC frequency following application of the drug: 22%
[1]; control rats
  average sIPSC frequency: 11.1±1.4 Hz
  average sEPSC amplitude: 18±1 pA
  average sEPSC frequency: 5.6±1 Hz
[1]; [3]
  average sIPSC frequency: 7.5±1 Hz
  average sEPSC amplitude: 21±2 pA
  average sEPSC frequency: 4.9±0.8 Hz
[1]; epileptic rats
  percentage reduction in sIPSC frequency following application of the drug: 11%
[2]; control animals, glutamate 100 μM then NBQX 10 μM focally to PrS, holding 0 mV, mean ±SEM
  sIPSC frequency: 4.5±0.3 Hz
[2]; control conditions, NBQX 10 μM focally to PrS
  reduction in sEPSC frequency following application of NBQX: 30%
[2]; control rats, glutamate 100 μM then NBQX 10 μM focally to PrS, holding -70 mV, mean ±SEM
  average sEPSC frequency: 4.6±0.6 Hz
[2]; [4]
  average sIPSC amplitude: 30±2 pA
  average sIPSC frequency: 6.8±0.9 Hz
[2]; epileptic rats (pilocarpine model of TLE), glutamate 100 μM then NBQX 10 μM focally to PrS, holding -70 mV, mean ±SEM
  sEPSC frequency: 10.5±2 Hz

## N[C@@H](CCC(=O)[O-])C(=O)[O-].[Na+].[Na+] [glutamate, Sodium glutamate]
RS cell in LIII of PrS
  action potential discharge of PrS neurons in response to local application: sustained action potential discharge; also recorded: reliably evokes action potential firing
